pIC50: −log10 of the molar value. In brackets after ≈: the same amount, converted by molar mass.

What is called pIC50 is the negative decadic logarithm of the IC50, by convention in mol/L. What is called inhibition is how much of the control response was suppressed.

Assay [1] deals with Staphylococcus aureus. The assay is described as follows: Synergistic antimicrobial activity against Staphylococcus aureus 1199B overexpressing NorA efflux pump assessed as norfloxacin MIC incubated for 24 hrs by broth dilution method. Type of assay: functional. On the technique in general: Broth dilution looks for growth in wells or tubes with falling amounts of substance.
In assay [2] the test system is Staphylococcus aureus. The assay is described as follows: Antibacterial activity against fluoroquinolone-resistant Staphylococcus aureus 1199B overexpressing NorA gene assessed as bacterial growth inhibition by microdilution method. Type of assay: functional.
For assay [3], the target named is Quinolone resistance protein NorA (Staphylococcus aureus, UniProt P0A0J7). The assay is described as follows: Inhibition of NorA efflux pump in Staphylococcus aureus 1199B overexpressing NorA gene assessed as reduction in EtBr efflux inhibition by spectrofluorometric assay.
In assay [4] the target is T1, Quinolone resistance protein NorA (Staphylococcus aureus) (UniProt P0A0J7).
T1 sequence (whole entry): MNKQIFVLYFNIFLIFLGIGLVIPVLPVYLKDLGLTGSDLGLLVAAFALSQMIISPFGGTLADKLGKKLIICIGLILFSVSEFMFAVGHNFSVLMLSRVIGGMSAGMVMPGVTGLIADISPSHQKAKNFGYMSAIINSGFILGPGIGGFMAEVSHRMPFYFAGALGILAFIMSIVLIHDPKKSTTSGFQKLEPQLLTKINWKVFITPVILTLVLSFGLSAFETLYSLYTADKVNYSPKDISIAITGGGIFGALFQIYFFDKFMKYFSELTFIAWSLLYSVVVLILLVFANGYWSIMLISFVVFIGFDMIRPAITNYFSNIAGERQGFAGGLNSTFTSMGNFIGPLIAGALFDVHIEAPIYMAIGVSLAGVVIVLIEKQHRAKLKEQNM
In words: Inhibition of NorA efflux pump in Staphylococcus aureus 1199B overexpressing NorA gene assessed as efflux inhibition at 2 mg/L by Hoechst 33342 staining based fluorescence assay.

Assay [5] has as its target T1, Quinolone resistance protein NorA (Staphylococcus aureus). The assay is described as follows: Inhibition of NorA efflux pump in Staphylococcus aureus 1199B overexpressing NorA efflux pump assessed as reduction in ciprofloxacin MIC at […] by resazurin based assay (Rvb= 6.25 ug/ml).
Assay [6] concerns Mycolicibacterium smegmatis. In words: Antibacterial activity against Mycobacterium smegmatis ATCC 607 assessed as bacterial growth inhibition incubated for 3 days by CLSI protocol based microbroth dilution method. Type of assay: functional. Particulars: ATCC 607, 72 h, time 3 day.
For assay [7], the system named is Staphylococcus aureus. In words: Antibacterial activity against Staphylococcus aureus NCTC 8325-4 assessed as bacterial growth inhibition incubated for 18 hrs by broth microdilution method. Type of assay: functional.
For assay [8], the system named is Staphylococcus aureus. The assay is described as follows: Synergistic antimicrobial activity against Staphylococcus aureus 1199B overexpressing NorA efflux pump assessed as reduction in norfloxacin MIC incubated for 24 hrs by MTT colorimetric assay (Rvb= 128 mg/ml). Type of assay: functional. In general terms: Formazan colour is commonly taken as a measure of viable cells.

The subject of assay [9] is Staphylococcus aureus. In words: Synergistic antimicrobial activity against Staphylococcus aureus 1199B overexpressing NorA efflux pump assessed as fractional inhibitory concentration index incubated for 24 hrs by checkerboard method. Type of assay: functional.
Assay [10] deals with Staphylococcus aureus. In words: Antibacterial activity against methicillin-resistant Staphylococcus aureus 1199B overexpressing NorA efflux pump assessed as bacterial growth inhibition incubated for 18 hrs by broth microdilution method. Type of assay: functional.
Assay [11] has as its system Staphylococcus aureus. The assay is described as follows: Antibacterial activity against methicillin-resistant Staphylococcus aureus RN4220/pUL5054 overexpressing MsrA efflux pump assessed as bacterial growth inhibition incubated for 18 hrs by broth microdilution method. Type of assay: functional.
In assay [12] the test system is Staphylococcus aureus. In words: Antibacterial activity against gentamicin-resistant Staphylococcus aureus APH2" AAC6 assessed as bacterial growth inhibition incubated for 18 hrs by broth microdilution method. Type of assay: functional.
Assay [13] has as its system Staphylococcus aureus. In words: Antibacterial activity against kanamycin-resistant Staphylococcus aureus APH3' assessed as bacterial growth inhibition incubated for 18 hrs by broth microdilution method. Type of assay: functional.
Assay [14] has as its system Staphylococcus aureus. In words: Antibacterial activity against fusidic acid-resistant Staphylococcus aureus APH4' assessed as bacterial growth inhibition incubated for 18 hrs by broth microdilution method. Type of assay: functional.
Assay [15] relates to Staphylococcus aureus. The assay is described as follows: Antibacterial activity against Staphylococcus aureus ST239 assessed as bacterial growth inhibition incubated for 18 hrs by broth microdilution method. Type of assay: functional.
Assay [16] concerns Staphylococcus aureus. In words: Synergistic antibacterial activity against Staphylococcus aureus 1199B overexpressing NorA gene assessed as fractional inhibitory concentration index at 128 ug/ml in presence of norfloxacin. Particulars: dose 128 µg/ml. Type of assay: functional.
Assay [17] relates to Staphylococcus aureus. In words: Antibacterial activity against Staphylococcus aureus 1199B overexpressing NorA assessed as bacterial growth inhibition incubated for 18 hrs by MTT assay. Type of assay: functional.
Assay [18] deals with Staphylococcus aureus. The assay is described as follows: Antibacterial activity against tetracycline-resistant Staphylococcus aureus XU212 assessed as bacterial growth inhibition incubated for 18 hrs by MTT assay. Type of assay: functional.
Assay [19] relates to Staphylococcus aureus. In words: Antibacterial activity against Staphylococcus aureus ATCC25923 assessed as bacterial growth inhibition incubated for 18 hrs by MTT assay. Type of assay: functional.
The subject of assay [20] is Staphylococcus aureus. In words: Antibacterial activity against Staphylococcus aureus RN4220 assessed as bacterial growth inhibition incubated for 18 hrs by MTT assay. Type of assay: functional.
Assay [21] deals with Staphylococcus aureus. The assay is described as follows: Antibacterial activity against Staphylococcus aureus EMRSA-15 assessed as bacterial growth inhibition incubated for 18 hrs by MTT assay. Type of assay: functional.
Assay [22] has as its system Staphylococcus aureus. In words: Antibacterial activity against Staphylococcus aureus EMRSA-16 assessed as bacterial growth inhibition incubated for 18 hrs by MTT assay. Type of assay: functional.
Assay [23] deals with Staphylococcus aureus. The assay is described as follows: Synergistic antibacterial activity against Staphylococcus aureus 1199B overexpressing NorA assessed as fractional Inhibitory concentration index at 64 ug/ml in presence of norfloxacin by broth dilution method. Type of assay: functional. Particulars: dose 64 µg/ml.
Assay [24] deals with Staphylococcus aureus. In words: Synergistic antibacterial activity against Staphylococcus aureus RN4220 assessed as fractional Inhibitory concentration index at 64 ug/ml in presence of norfloxacin by broth dilution method. Particulars: dose 64 µg/ml. Type of assay: functional.
Assay [25] has as its system Staphylococcus aureus. In words: Synergistic antibacterial activity against Staphylococcus aureus EMRSA-15 assessed as fractional Inhibitory concentration index at 64 ug/ml in presence of norfloxacin by broth dilution method. Type of assay: functional. The conditions noted are these: dose 64 µg/ml.
Assay [26] concerns the target T1, Quinolone resistance protein NorA (Staphylococcus aureus). Particulars: 1199B, dose 64.0 µg/ml.

Consider `COC[C@@H](Cc1ccc(OC)c(OC)c1)[C@@H](COC)Cc1ccc(OC)c(OC)c1`, for which the MIC with Staphylococcus aureus [1] turned out to be 12.7 µg/mL.

Turning to `C[C@@H]1O[C@@H](Oc2c(-c3ccc(O)cc3)oc3cc(O)cc(O)c3c2=O)[C@H](OC(=O)/C=C/c2ccc(O)cc2)[C@H](O)[C@H]1OC(=O)/C=C/c1ccc(O)cc1`, the MIC in the assay with Staphylococcus aureus [2] came to 35 µM; in [5], 0.78 µg/mL. Also, the pIC50 in assay [3] is 5.70. The inhibition in assay [4] came out at 40%.

Regarding `COc1c(O)c(OC)c2oc(-c3ccc(O)cc3)c(OC)c(=O)c2c1O`, the values for the MIC (in assay [6]; in the assay with Staphylococcus aureus [7]) were 75 µg/mL (≈ 208 µM) and > 800 µg/mL, respectively.

For the compound `C/C=C/C1=CC2C(=CC1=O)O[C@H](c1ccc(OC)c(OC)c1)[C@H]2C` (stereo partly specified), the MIC in the assay on Staphylococcus aureus [8] is 32000 µg/mL. For the same compound, the “fractional inhibitory concentration index (FICI)” value with Staphylococcus aureus [9] is 0.25.

`O=c1cc(-c2ccccc2)oc2cc(O)c(O)c(O)c12` [BAICALEIN]: the MIC in the assay on Staphylococcus aureus [10] was determined as 128 µg/mL (≈ 474 µM); in the assay on Staphylococcus aureus [11] it was 64 µg/mL (≈ 237 µM); with Staphylococcus aureus [12], 128 µg/mL (≈ 474 µM); in the assay on Staphylococcus aureus [13], 64 µg/mL (≈ 237 µM); in the assay with Staphylococcus aureus [14], 128 µg/mL (≈ 474 µM); in the assay on Staphylococcus aureus [15], 128 µg/mL (≈ 474 µM).

Turning to `COc1cc(-c2oc3cc(OC)c(OC)c(O)c3c(=O)c2OC)ccc1O` [CHRYSOSPLENOL B], the “fractional inhibitory concentration index (FICI)” value with Staphylococcus aureus [16] was 0.375.

For the compound `COc1ccc(-c2cc(=O)c3c(O)cc(O)cc3o2)cc1O` [DIOSMETIN], the MIC in the assay with Staphylococcus aureus [17] is 32 µg/mL (≈ 107 µM); with Staphylococcus aureus [18], 32 µg/mL (≈ 107 µM); with Staphylococcus aureus [19], 32 µg/mL (≈ 107 µM); with Staphylococcus aureus [20] it was 32 µg/mL (≈ 107 µM); in the assay with Staphylococcus aureus [21] it was 32 µg/mL (≈ 107 µM); with Staphylococcus aureus [22], 8 µg/mL (≈ 26.6 µM). In addition, the MIC in assay [26] was 16 µg/mL (≈ 53.3 µM). The “fractional inhibitory concentration index (FICI)” value stood at 0.38 with Staphylococcus aureus [23], 0.38 in the assay on Staphylococcus aureus [24] and 0.09 with Staphylococcus aureus [25].

(Values after ChEMBL document CHEMBL5244281, “Tackling multidrug-resistant Staphylococcus aureus by natural products and their analogues acting as NorA efflux pump inhibitors” (Bioorg Med Chem, 2023).)
